Target: T1, hM5 (Homo sapiens, UniProt P08912)
T1 construct: expressed in transfected cells
T1 sequence (P08912 1-532): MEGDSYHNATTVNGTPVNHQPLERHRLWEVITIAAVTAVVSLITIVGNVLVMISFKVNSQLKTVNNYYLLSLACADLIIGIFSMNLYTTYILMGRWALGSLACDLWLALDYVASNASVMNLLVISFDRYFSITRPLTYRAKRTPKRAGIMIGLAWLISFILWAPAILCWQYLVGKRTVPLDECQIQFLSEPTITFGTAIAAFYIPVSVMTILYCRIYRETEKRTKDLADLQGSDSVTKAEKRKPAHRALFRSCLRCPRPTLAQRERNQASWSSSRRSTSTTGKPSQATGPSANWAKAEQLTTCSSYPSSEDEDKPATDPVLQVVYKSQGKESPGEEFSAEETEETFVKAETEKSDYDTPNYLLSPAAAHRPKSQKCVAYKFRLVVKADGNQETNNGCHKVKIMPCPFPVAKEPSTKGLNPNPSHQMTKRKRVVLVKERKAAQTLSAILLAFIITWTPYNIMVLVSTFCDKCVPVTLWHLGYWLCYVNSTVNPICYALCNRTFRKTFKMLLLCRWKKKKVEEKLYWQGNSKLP
Assay: Calcium mobilization concentration-response (IC50 vs EC80 acetylcholine), CHO hM5
Type: cell-based
Details: not given
Method in brief: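 CHO cells stably expressing hM5, dye-loaded, in HBSS/20 mM HEPES/2.5 mM probenecid, pH 7.4. Compounds were pre-incubated 140 s before an EC80 acetylcholine challenge, with calcium flux read kinetically.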

`Cc1cc2ncnn2cc1C1=CC2CCC(C1)N2S(=O)(=O)c1ccc2c(c1)CCO2` (centres unmarked) [Compound 190, 6-(8-((2,3-dihydrobenzofuran-5-yl)sulfonyl)-8-azabicyclo[3.2.1]oct-2-en-3-yl)-7-methyl-[1,2,4]triazolo[1,5-a]pyridine] and `Cc1cc2ncnn2cc1C1CC2CCC(C1)N2S(=O)(=O)c1cnn(C)c1C` (centres unmarked) [Compound 191, 6-(8-((1,5-dimethyl-1H-pyrazol-4-yl)sulfonyl)-8-azabicyclo[3.2.1]octan-3-yl)-7-methyl-[1,2,4]triazolo[1,5-a]pyridine] cannot be ordered by IC50: over 10000 nM for the first, over 10000 nM for the second.

Same assay, conditions: CELL LINE hM5; calcium mobilization, EC80 acetylcholine addition; read-out: IC50

First: Cc1cc2ncnn2nc1C1CCN(S(=O)(=O)c2cnn(C)c2C(F)(F)F)CC1 [Compound 177, 7-methyl-6-(1-((1-methyl-5-(trifluoromethyl)-1H-pyrazol-4-yl)sulfonyl)piperidin-4-yl)-[1,2,4]triazolo[1,5-b]pyridazine]
Second: CCc1cc2ncnn2cc1C1CCN(S(=O)(=O)c2cnn(C)c2C(F)(F)F)CC1 [Compound 331, 7-ethyl-6-(1-((1-methyl-5-(trifluoromethyl)-1H-pyrazol-4-yl)sulfonyl)piperidin-4-yl)-[1,2,4]triazolo[1,5-a]pyridine]
The IC50 of the first is higher: over 10000 nM for the first, 2600 nM for the second.

Going from `COc1cc2ncnn2cc1C1CCN(S(=O)(=O)c2ccc3c(c2)C(C)CO3)CC1` (centres unmarked) [Compound 90, 7-methoxy-6-(1-((3-methyl-2,3-dihydrobenzofuran-5-yl)sulfonyl)piperidin-4-yl)-[1,2,4]triazolo[1,5-a]pyridine] to `Cc1cc2ncnn2cc1C1CCN(S(=O)(=O)c2cc3c(cc2F)OCC3C)CC1` (centres unmarked) [Compound 103, 6-(1-((6-fluoro-3-methyl-2,3-dihydrobenzofuran-5-yl)sulfonyl)piperidin-4-yl)-7-methyl-[1,2,4]triazolo[5-a]pyridine], the IC50 falls from 3100 nM to 195 nM (16-fold).

Compared with `CN1CCOc2ccc(S(=O)(=O)N3CC=C(c4cc5c(cc4Cl)OCO5)CC3)cc21` [Compound 353, 6-((4-(6-chlorobenzo[d][1,3]dioxol-5-yl)-3,6-dihydropyridin-1(2H)-yl)sulfonyl)-4-methyl-3,4-dihydro-2H-benzo[b][1,4]oxazine], `Cc1cc2ncnn2cc1C1=CCN(S(=O)(=O)c2ccc3c(c2)CCO3)CC1` [Compound 35, 6-(1-((2,3-dihydrobenzofuran-5-yl)sulfonyl)-1,2,3,6-tetrahydropyridin-4-yl)-7-methyl-[1,2,4]triazolo[1,5-a]pyridine] is lower in IC50: over 10000 nM for the first, 518 nM for the second.

Compared with `Cc1ncc(S(=O)(=O)N2CC=C(c3cn4ncnc4cc3Cl)CC2)n1C` [Compound 224, 7-chloro-6-(1-((1,2-dimethyl-1H-imidazol-5-yl)sulfonyl)-1,2,3,6-tetrahydropyridin-4-yl)-[1,2,4]triazolo[1,5-a]pyridine], `Cc1cc2ncnn2cc1C1(O)CCN(S(=O)(=O)c2cnc(C)n2C)CC1` [Compound 309, 1-((1,2-dimethyl-1H-imidazol-5-yl)sulfonyl)-4-(7-methyl-[1,2,4]triazolo[1,5-a]pyridin-6-yl)piperidin-4-ol] is higher in IC50: 12 nM for the first, over 10000 nM for the second.

First: Cc1cc2ncnn2cc1C1CCN(S(=O)(=O)c2c(F)cc3c(c2F)C(C)CO3)CC1 (centres unmarked) [Compound 116, 6-(1-((4,6-difluoro-3-methyl-2,3-dihydrobenzofuran-5-yl)sulfonyl)piperidin-4-yl)-7-methyl-[1,2,4]triazolo[1,5-a]pyridine]
Second: Cc1cc2ncnn2cc1C1CCN(S(=O)(=O)c2cc3c(cc2F)OCC3)CC1 [Compound 47, 6-(1-((6-fluoro-2,3-dihydrobenzofuran-5-yl)sulfonyl)piperidin-4-yl)-7-methyl-[1,2,4]triazolo[1,5-a]pyridine]
The IC50 of the first is 2.2-fold lower: 205 nM for the first, 441 nM for the second. The first is the more potent here.

First: Cc1sc(C(N)=O)nc1C1CCN(S(=O)(=O)c2cnn(C)c2C)CC1 [Compound 213, 4-(1-((1,5-Dimethyl-1H-pyrazol-4-yl)sulfonyl)piperidin-4-yl)-5-methylthiazole-2-carboxamide]
Second: Cc1cc(C(F)(F)F)ncc1C1CCN(S(=O)(=O)c2cnn(C)c2Cl)CC1 [Compound 395, 5-(1-((5-chloro-1-methyl-1H-pyrazol-4-yl)sulfonyl)piperidin-4-yl)-4-methyl-2-(triflu0romethyl)pyridine]
The IC50 of the first is 4.5-fold higher: 5800 nM for the first, 1290 nM for the second. The second is the more potent here.

Compared with `Cc1cc2ncnn2cc1C1CCN(S(=O)(=O)c2ccc3c(c2)C(C)(C)CO3)CC1` [Compound 74, 6-(1-((3,3-dimethyl-2,3-dihydrobenzofuran-5-yl)sulfonyl)piperidin-4-yl)-7-methyl-[1,2,4]triazolo[1,5-a]pyridine], `Cc1cc2ncnn2cc1C1CCN(S(=O)(=O)c2c(C)nn(C)c2Cl)CC1` [Compound 138, 6-(1-((5-chloro-1,3-dimethyl-1H-pyrazol-4-yl)sulfonyl)piperidin-4-yl)-7-methyl-[1,2,4]triazolo[1,5-a]pyridine] is lower in IC50: over 10000 nM for the first, 26 nM for the second. The second is the more potent here.

First: [2H]C([2H])([2H])n1nc(Cl)c(S(=O)(=O)N2CCC(c3cn4ncnc4cc3C)CC2)c1C [Compound 260, 6-(1(3-chloro-5-methyl-1-(methyl-d3-1H-pyrazol-4-yl)sulfonyl)piperidin-4-yl)-7-methyl-[1,2,4]triazolo[1,5-a]pyridine]
Second: Cc1cc2ncnn2cc1C1CCN(S(=O)(=O)c2cnc3n2CCC3)CC1 [Compound 219, 6-(1-((6,7-dihydro-5H-pyrrolo[1,2-a]imidazol-3-yl)sulfonyl)piperidin-4-yl)-7-methyl-[1,2,4]triazolo[1,5-a]pyridine]
The IC50 of the first is lower: 29 nM for the first, over 10000 nM for the second.

Compared with `O=S(=O)(c1ccc2ncsc2c1)N1CCC(c2cc(-c3ccco3)n[nH]2)CC1` [Compound 6, 6-((4-(3-(furan-2-yl)-1H-pyrazol-5-yl)piperidin-1-yl)sulfonyl)benzo[d]thiazole], `O=S(=O)(c1ccc2c(c1)CCO2)N1CCC(c2cn3ccccc3n2)CC1` [Compound 10, 2-(1-((2,3-dihydrobenzofuran-5-yl)sulfonyl)piperidin-4-yl)imidazo[1,2-a]pyridine] is lower in IC50: over 10000 nM for the first, 2300 nM for the second.

Compared with `O=S(=O)(c1cnc2ccccn12)N1CCC(c2cn3ncnc3cc2C(F)(F)F)CC1` [Compound 338, 6-(1-(imidazo[1,2-a]pyridin-3-yl)sulfonyl)piperidin-4-yl)-7-(trifluoromethyl_-[1,2,4]triazolo[1,5-a]pyridine], `O=S(=O)(c1ccc(Cl)nc1)N1CCC(c2cn3ncnc3cc2C(F)(F)F)CC1` [Compound 112, 6-(1-((6-chloropyridin-3-yl)sulfonyl)piperidin-4-yl)-7-(trifluoromethyl)-[1,2,4]triazolo[1,5-a]pyridine] is higher in IC50: 164 nM for the first, over 10000 nM for the second.

Compared with `Cc1nn(C)cc1S(=O)(=O)N1CCC(c2cn3ncnc3cc2C(F)(F)F)CC1` [Compound 113, 6-(1-((1,3-dimethyl-1H-pyrazol-4-yl)sulfonyl)piperidin-4-yl)-7-(trifluoromethyl)-[1,2,4]triazolo[1,5-a]pyridine], `Cn1ncc(S(=O)(=O)N2CCC(c3ccc4c(c3)OCO4)CC2)c1Cl` [Compound 357, 4-(benzo[d][1,3]dioxol-5-yl)-1-((5-chloro-1-methyl-1H-pyrazol-4-yl)sulfonyl)piperidine] is 6.2-fold lower in IC50: 2400 nM for the first, 384 nM for the second. The second is the more potent here.

`Cc1c(S(=O)(=O)N2CC=C(c3cnc4ncnn4c3C)CC2)cnn1C` [Compound 243, 6-(1-((1,5-dimethyl-1H-pyrazol-4-yl)sulfonyl)-1,2,3,6-tetrahydropyridin-4-yl)-7-methyl-[1,2,4]triazolo[1,5-a]pyrimidine] showed an IC50 of over 10000 nM.

Same assay, conditions: CELL LINE hM5; vs EC80 acetylcholine; read-out: IC50

Compared with `CC(=O)NCc1c(S(=O)(=O)N2CCC(c3cn4ncnc4cc3C)CC2)cnn1C` [Compound 543, N-((1-methyl-4-((4-(7-methyl-[1,2,4]triazolo[1,5-a]pyridin-6-yl)piperidin-1-yl)sulfonyl)-1H-pyrazol-5-yl)methyl)acetamide], `Cc1cc2ncnn2cc1C1CCN(S(=O)(=O)c2nncn2C)CC1` [Compound 524, 7-methyl-6-(1-((4-methyl-4H-1,2,4-triazol-3-yl)sulfonyl)piperidin-4-yl)-[1,2,4]triazolo[1,5-a]pyridine] is lower in IC50: over 10000 nM for the first, 493 nM for the second.

Compared with `Cc1nsc(S(=O)(=O)N2CCC(c3cn4ncnc4cc3Cl)CC2)n1` [Compound 608, 5-((4-(7-Chloro-[1,2,4]triazolo[1,5-a]pyridin-6-yl)piperidin-1-yl)sulfonyl)-3-methyl-1,2,4-thiadiazole], `Cn1ncc(S(=O)(=O)N2CCC(c3cn4ncnc4cc3C(F)F)CC2)c1C#N` [Compound 482, 4-((4-(7-(difluoromethyl)-[1,2,4]triazolo[1,5-a]pyridin-6-yl)piperidin-1-yl)sulfonyl)-1-methyl-1H-pyrazole-5-carbonitrile] is 3.8-fold lower in IC50: 234 nM for the first, 61 nM for the second.

Compared with `Cc1cc(C(F)(F)F)ncc1C1CCN(S(=O)(=O)c2cnc(C)n2C)CC1` [Compound 396, 5(1-((1,2-dimethyl-1H-imidazol-5-yl)sulfonyl)piperidin-4-yl)-4-methyl-2-(trifluoromethyl)pyridine], `[2H]C1([2H])CC(c2cn3ncnc3cc2C)CC([2H])([2H])N1S(=O)(=O)c1cnc(C)o1` [Compound 568, 2-methyl-5-((4-(7-methyl-[1,2,4]triazolo[1,5-a]pyridin-6-yl)piperidin-1-yl-2,2,6,6-d4)sulfonyl)oxazole] is lower in IC50: over 10000 nM for the first, 47 nM for the second.

Work on `Cn1ncc(S(=O)(=O)N2CC=C(c3c4ccccc4nn3C)CC2)c1Cl` [Compound 489, 3-(1-((5-chloro-1-methyl-1H-pyrazol-4-yl)sulfonyl)-1,2,3,6-tetrahydropyridin-4-yl)-2-methyl-2H-indazole] yielded an IC50 of 1290 nM.

Reference: patent US20230183237A1, “COMPETITIVE AND NONCOMPETITIVE INHIBITORS OF THE MUSCARINIC ACETYLCHOLINE RECEPTOR M5” (Vanderbilt University, priority 2020, published 2023)
